{"source": "paper PMC2735267", "about": "(Neuropharmacology, 2009)", "key": {"α7-nAChR": {"molecular_target": "α7-nAChR (Mus musculus, UniProt P49582)", "sequence (P49582 23-502)": "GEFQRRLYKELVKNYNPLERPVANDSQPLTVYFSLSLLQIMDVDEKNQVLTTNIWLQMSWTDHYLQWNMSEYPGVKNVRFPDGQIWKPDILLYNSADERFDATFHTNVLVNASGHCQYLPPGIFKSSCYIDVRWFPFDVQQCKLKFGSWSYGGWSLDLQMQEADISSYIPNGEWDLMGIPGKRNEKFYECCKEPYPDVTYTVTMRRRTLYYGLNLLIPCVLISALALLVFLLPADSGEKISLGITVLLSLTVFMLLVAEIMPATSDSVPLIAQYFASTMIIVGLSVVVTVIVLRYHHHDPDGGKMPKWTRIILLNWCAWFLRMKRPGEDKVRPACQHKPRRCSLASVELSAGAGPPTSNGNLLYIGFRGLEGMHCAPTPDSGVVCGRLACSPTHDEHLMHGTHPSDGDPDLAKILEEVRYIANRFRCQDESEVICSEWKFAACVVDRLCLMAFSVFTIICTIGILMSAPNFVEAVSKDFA", "experiment": "biochemical", "type": "binding, C57BL/6J mice", "conditions": "read-out: [125I]α-bungarotoxin (WT) Ki; […]; 0.5 nM ligand; one-site model"}, "β2*-nAChR": {"molecular_target": "β2*-nAChR (Mus musculus, UniProt O70174+Q9ERK7)", "sequence (O70174 31-629)": "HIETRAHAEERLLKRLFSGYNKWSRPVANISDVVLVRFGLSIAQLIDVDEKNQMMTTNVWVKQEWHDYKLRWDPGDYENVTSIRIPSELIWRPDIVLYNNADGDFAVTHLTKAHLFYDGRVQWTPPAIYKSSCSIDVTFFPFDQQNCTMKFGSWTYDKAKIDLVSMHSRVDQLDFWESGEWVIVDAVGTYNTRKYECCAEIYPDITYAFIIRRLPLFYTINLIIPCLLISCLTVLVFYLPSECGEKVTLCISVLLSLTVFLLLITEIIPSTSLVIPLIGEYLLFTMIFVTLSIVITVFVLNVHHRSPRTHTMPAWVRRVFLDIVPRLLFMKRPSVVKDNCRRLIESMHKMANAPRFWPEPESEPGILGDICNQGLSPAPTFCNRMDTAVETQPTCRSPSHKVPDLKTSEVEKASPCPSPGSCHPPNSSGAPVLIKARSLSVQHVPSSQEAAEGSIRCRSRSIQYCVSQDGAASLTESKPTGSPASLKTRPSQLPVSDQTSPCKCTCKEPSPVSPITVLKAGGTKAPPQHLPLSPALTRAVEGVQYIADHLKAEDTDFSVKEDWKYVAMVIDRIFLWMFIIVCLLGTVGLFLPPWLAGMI", "sequence (Q9ERK7 26-501)": "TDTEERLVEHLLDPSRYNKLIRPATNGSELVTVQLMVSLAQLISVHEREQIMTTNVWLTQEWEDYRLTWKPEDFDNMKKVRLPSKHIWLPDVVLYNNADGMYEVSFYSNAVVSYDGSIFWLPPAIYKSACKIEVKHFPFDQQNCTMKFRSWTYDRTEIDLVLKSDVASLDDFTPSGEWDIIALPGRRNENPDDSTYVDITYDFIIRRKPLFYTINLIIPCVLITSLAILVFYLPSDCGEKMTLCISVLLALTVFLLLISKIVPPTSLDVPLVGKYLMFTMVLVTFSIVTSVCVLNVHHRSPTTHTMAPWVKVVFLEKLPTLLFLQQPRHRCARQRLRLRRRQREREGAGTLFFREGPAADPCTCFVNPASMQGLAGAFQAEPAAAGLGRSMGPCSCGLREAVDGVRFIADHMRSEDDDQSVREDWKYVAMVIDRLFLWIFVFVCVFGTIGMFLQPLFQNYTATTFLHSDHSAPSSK", "experiment": "biochemical", "type": "binding, C57BL/6J mice", "conditions": "read-out: [125I]epibatidine (β4 -/-) Ki; inferior colliculi, β4-/- mice; 200 pM ligand"}, "DBA/2J mice": {"system": "DBA/2J mice", "experiment": "3-IC-induced hypothermia", "type": "in vivo, mouse"}, "C57BL/6J mice": {"system": "C57BL/6J mice", "experiment": "3-IC-induced hypothermia", "type": "in vivo, mouse"}, "α7* nAChR binding sites [1]": {"system": "α7* nAChR binding sites", "type": "in vivo, DBA/2J mice", "conditions": "cerebral cortex membranes; 0.2 mg/kg/h iv 7 days"}, "α7* nAChR binding sites [2]": {"system": "α7* nAChR binding sites", "type": "in vivo, DBA/2J mice", "conditions": "for [125I]α-bungarotoxin binding: 3-IC 0.2 mg/kg/h iv 7 days; for [125I]α-bungarotoxin binding % change: 3-IC 0.2 mg/kg/h iv 7 days vs saline"}, "[3]": {"system": "cytisine-resistant [125I]epibatidine binding sites (mixed population of nAChR)", "conditions": "membranes, any brain region analyzed; 0.2 mg/kg/h iv 7 days"}, "[4]": {"system": "A85380-resistant [125I]epibatidine binding sites (mainly α3β4* nAChR)", "conditions": "membranes; 0.2 mg/kg/h iv 7 days"}, "α4β2* receptors": {"molecular_target": "α4β2* receptors", "conditions": "read-out: Ki α4β2* receptors in rat brain; ref Abin-Carriquiry et al., 2006; cited from earlier work"}, "human α7": {"molecular_target": "human α7", "conditions": "read-out: Ki human α7; expressed in Xenopus oocytes; ref Slater et al., 2003; cited from earlier work"}, "[3H]dopamine release": {"system": "[3H]dopamine release", "conditions": "read-out: EC50 [3H]dopamine release; rat striatal synaptosomes; ref Abin-Carriquiry et al., 2006; cited from earlier work"}, "[5]": {"conditions": "inferior colliculus (externall)"}, "[6]": {"conditions": "superior colliculus (optic nerve)"}, "[7]": {"conditions": "superior colliculus (sup. gray)"}, "[8]": {"conditions": "supramammillary hypothalamic nucleus"}, "[9]": {"conditions": "ventrolateral geniculate nucleus"}}, "note": "Read-outs that look alike come from different tables or passages of the source. Marks after values point to notes of the source that are not given here."}
{"smiles": "O=c1c(I)ccc2n1C[C@@H]1CNC[C@H]2C1", "note": "[3-IC, 3-iodocytisine]", "values": [{"measurement": "Ki", "setting": "α7-nAChR", "result": "2.2 ± 1.2", "unit": "nM"}, {"measurement": "Ki", "setting": "β2*-nAChR", "result": "0.128 ± 0.003", "unit": "nM"}, {"measurement": "decrease of basal temperature", "setting": "DBA/2J mice; 0.2 mg/kg ip acute, DBA/2J", "result": "7.7 ± 0.5", "unit": "°C"}, {"measurement": "tremors or diarrhea", "setting": "DBA/2J mice; 0.2 mg/kg ip, DBA/2J and C57BL/6J", "result": "without inducing tremors or diarrhea"}, {"measurement": "maximal temperature decrease", "setting": "DBA/2J mice; 1 mg/kg ip, DBA/2J", "result": "11.9 ± 0.4", "unit": "°C"}, {"measurement": "time of maximal hypothermia after 3-IC injection, saline pretreated", "setting": "DBA/2J mice; 3-IC 0.2 mg/kg, DBA/2J", "result": 40, "unit": "min"}, {"measurement": "seizures", "setting": "DBA/2J mice; any dose tested (0.05-1 mg/kg ip), DBA/2J and C57BL/6J", "result": "no seizures were noted"}, {"measurement": "maximal 3-IC-induced hypothermia after saline pretreatment", "setting": "DBA/2J mice; hexamethonium experiment, 3-IC 0.2 mg/kg, DBA/2J", "result": "8.10 ± 0.63", "unit": "°"}, {"measurement": "doses at which tremors were seen", "setting": "DBA/2J mice; ip acute, DBA/2J and C57BL/6J", "result": "above 0.5 mg/kg"}, {"measurement": "ED50 for hypothermia", "setting": "DBA/2J mice; ip, DBA/2J, maximal drop in temperature", "result": "0.15 ± 0.04", "unit": "mg/kg"}, {"measurement": "3-IC-induced hypothermia after saline pretreatment", "setting": "DBA/2J mice; mecamylamine experiment, 3-IC 0.2 mg/kg ip, DBA/2J", "result": "8.50 ± 0.42", "unit": "°C"}, {"measurement": "decrease of basal temperature", "setting": "C57BL/6J mice; 0.2 mg/kg ip acute", "result": "9.2 ± 1.13", "unit": "°C"}, {"measurement": "maximal temperature decrease", "setting": "C57BL/6J mice; 1 mg/kg ip", "result": "13.3 ± 0.9", "unit": "°C"}, {"measurement": "maximal 3-IC-induced hypothermia after saline pretreatment", "setting": "C57BL/6J mice; hexamethonium experiment, 3-IC 0.2 mg/kg", "result": "9.25 ± 0.76", "unit": "°C"}, {"measurement": "ED50 for hypothermia", "setting": "C57BL/6J mice; ip, maximal drop in temperature", "result": "0.16 ± 0.03", "unit": "mg/kg"}, {"measurement": "3-IC-induced hypothermia after saline pretreatment", "setting": "C57BL/6J mice; mecamylamine experiment, 3-IC 0.2 mg/kg ip", "result": "9.25 ± 0.76", "unit": "°C"}, {"measurement": "increase in [125I]α-bungarotoxin binding sites compared to saline", "setting": "α7* nAChR binding sites [1]", "result": 58, "unit": "%"}, {"measurement": "[125I]α-bungarotoxin binding", "setting": "α7* nAChR binding sites [2]; caudate putamen", "result": "19.6 ± 2.3", "unit": "fmol/mg"}, {"measurement": "[125I]α-bungarotoxin binding % change", "setting": "α7* nAChR binding sites [2]; caudate putamen", "result": 65.8, "unit": "%"}, {"measurement": "[125I]α-bungarotoxin binding % change", "setting": "α7* nAChR binding sites [2]; caudate putamen, listed as 3-iodocytisine", "result": "65.8 * %"}, {"measurement": "[125I]α-bungarotoxin binding", "setting": "α7* nAChR binding sites [2]; cingulate cortex", "result": "6.3 ± 1.4", "unit": "fmol/mg"}, {"measurement": "[125I]α-bungarotoxin binding % change", "setting": "α7* nAChR binding sites [2]; cingulate cortex", "result": 11.7, "unit": "%"}, {"measurement": "[125I]α-bungarotoxin binding", "setting": "α7* nAChR binding sites [2]; dentate gyrus (granular layer)", "result": "11.7 ± 1.2", "unit": "fmol/mg"}, {"measurement": "[125I]α-bungarotoxin binding % change", "setting": "α7* nAChR binding sites [2]; dentate gyrus (granular layer)", "result": 63.5, "unit": "%"}, {"measurement": "[125I]α-bungarotoxin binding", "setting": "α7* nAChR binding sites [2]; hippocampus (CA1-3)", "result": "10.2 ± 0.8", "unit": "fmol/mg"}, {"measurement": "[125I]α-bungarotoxin binding % change", "setting": "α7* nAChR binding sites [2]; hippocampus (CA1-3)", "result": 77.5, "unit": "%"}, {"measurement": "[125I]α-bungarotoxin binding % change", "setting": "α7* nAChR binding sites [2]; hippocampus (CA1-3), listed as 3-iodocytisine", "result": "77.5 ** %"}, {"measurement": "[125I]α-bungarotoxin binding", "setting": "α7* nAChR binding sites [2]; inferior colliculus (central)", "result": "37.6 ± 4.2", "unit": "fmol/mg"}, {"measurement": "[125I]α-bungarotoxin binding % change", "setting": "α7* nAChR binding sites [2]; inferior colliculus (central)", "result": 21.7, "unit": "%"}, {"measurement": "[125I]α-bungarotoxin binding", "setting": "α7* nAChR binding sites [2]; inferior colliculus (dorsal)", "result": "21.7 ± 3.7", "unit": "fmol/mg"}, {"measurement": "[125I]α-bungarotoxin binding % change", "setting": "α7* nAChR binding sites [2]; inferior colliculus (dorsal)", "result": 14.4, "unit": "%"}, {"measurement": "[125I]α-bungarotoxin binding", "setting": "α7* nAChR binding sites [2]; [5]", "result": "23.5 ± 4.1", "unit": "fmol/mg"}, {"measurement": "[125I]α-bungarotoxin binding % change", "setting": "α7* nAChR binding sites [2]; [5]", "result": 33.1, "unit": "%"}, {"measurement": "[125I]α-bungarotoxin binding", "setting": "α7* nAChR binding sites [2]; interpeduncular nucleus", "result": "23.5 ± 1.4", "unit": "fmol/mg"}, {"measurement": "[125I]α-bungarotoxin binding % change", "setting": "α7* nAChR binding sites [2]; interpeduncular nucleus", "result": "26.2 * %"}, {"measurement": "[125I]α-bungarotoxin binding", "setting": "α7* nAChR binding sites [2]; medial habenula", "result": "11.6 ± 1.0", "unit": "fmol/mg"}, {"measurement": "[125I]α-bungarotoxin binding % change", "setting": "α7* nAChR binding sites [2]; medial habenula", "result": 26.4, "unit": "%"}, {"measurement": "[125I]α-bungarotoxin binding", "setting": "α7* nAChR binding sites [2]; nucleus accumbens", "result": "6.8 ± 0.7", "unit": "fmol/mg"}, {"measurement": "[125I]α-bungarotoxin binding % change", "setting": "α7* nAChR binding sites [2]; nucleus accumbens", "result": 81.2, "unit": "%"}, {"measurement": "[125I]α-bungarotoxin binding % change", "setting": "α7* nAChR binding sites [2]; nucleus accumbens, listed as 3-iodocytisine", "result": "81.2 ** %"}, {"measurement": "[125I]α-bungarotoxin binding", "setting": "α7* nAChR binding sites [2]; parietal cortex (layers 1-3)", "result": "5.9 ± 0.3", "unit": "fmol/mg"}, {"measurement": "[125I]α-bungarotoxin binding % change", "setting": "α7* nAChR binding sites [2]; parietal cortex (layers 1-3)", "result": "79.3 ** %"}, {"measurement": "[125I]α-bungarotoxin binding", "setting": "α7* nAChR binding sites [2]; parietal cortex (layers 4-6)", "result": "7.8 ± 0.4", "unit": "fmol/mg"}, {"measurement": "[125I]α-bungarotoxin binding % change", "setting": "α7* nAChR binding sites [2]; parietal cortex (layers 4-6)", "result": "74.4 ** %"}, {"measurement": "[125I]α-bungarotoxin binding", "setting": "α7* nAChR binding sites [2]; retrosplenial Cortex", "result": "4.8 ± 0.4", "unit": "fmol/mg"}, {"measurement": "[125I]α-bungarotoxin binding % change", "setting": "α7* nAChR binding sites [2]; retrosplenial Cortex", "result": 21.2, "unit": "%"}, {"measurement": "[125I]α-bungarotoxin binding", "setting": "α7* nAChR binding sites [2]; subiculum", "result": "7.1 ± 0.7", "unit": "fmol/mg"}, {"measurement": "[125I]α-bungarotoxin binding % change", "setting": "α7* nAChR binding sites [2]; subiculum", "result": 22.0, "unit": "%"}, {"measurement": "[125I]α-bungarotoxin binding", "setting": "α7* nAChR binding sites [2]; substantia nigra", "result": "7.9 ± 0.9", "unit": "fmol/mg"}, {"measurement": "[125I]α-bungarotoxin binding % change", "setting": "α7* nAChR binding sites [2]; substantia nigra", "result": 29.5, "unit": "%"}, {"measurement": "[125I]α-bungarotoxin binding", "setting": "α7* nAChR binding sites [2]; [6]", "result": "11.5 ± 0.5", "unit": "fmol/mg"}, {"measurement": "[125I]α-bungarotoxin binding % change", "setting": "α7* nAChR binding sites [2]; [6]", "result": "44.2 ** %"}, {"measurement": "[125I]α-bungarotoxin binding", "setting": "α7* nAChR binding sites [2]; [7]", "result": "23.1 ± 0.8", "unit": "fmol/mg"}, {"measurement": "[125I]α-bungarotoxin binding % change", "setting": "α7* nAChR binding sites [2]; [7]", "result": "34.7 ** %"}, {"measurement": "[125I]α-bungarotoxin binding", "setting": "α7* nAChR binding sites [2]; [8]", "result": "12.1 ± 1.2", "unit": "fmol/mg"}, {"measurement": "[125I]α-bungarotoxin binding % change", "setting": "α7* nAChR binding sites [2]; [8]", "result": 24.4, "unit": "%"}, {"measurement": "[125I]α-bungarotoxin binding", "setting": "α7* nAChR binding sites [2]; ventral tegmental area", "result": "5.2 ± 0.4", "unit": "fmol/mg"}, {"measurement": "[125I]α-bungarotoxin binding % change", "setting": "α7* nAChR binding sites [2]; ventral tegmental area", "result": 40.5, "unit": "%"}, {"measurement": "[125I]α-bungarotoxin binding % change", "setting": "α7* nAChR binding sites [2]; ventral tegmental area, listed as 3-iodocytisine", "result": "40.5 * %"}, {"measurement": "[125I]α-bungarotoxin binding", "setting": "α7* nAChR binding sites [2]; [9]", "result": "18.1 ± 1.2", "unit": "fmol/mg"}, {"measurement": "[125I]α-bungarotoxin binding % change", "setting": "α7* nAChR binding sites [2]; [9]", "result": "30.2 * %"}, {"measurement": "[125I]α-bungarotoxin binding", "setting": "α7* nAChR binding sites [2]; zona incerta", "result": "11.1 ± 1.0", "unit": "fmol/mg"}, {"measurement": "[125I]α-bungarotoxin binding % change", "setting": "α7* nAChR binding sites [2]; zona incerta", "result": 52.1, "unit": "%"}, {"measurement": "[125I]α-bungarotoxin binding % change", "setting": "α7* nAChR binding sites [2]; zona incerta, listed as 3-iodocytisine", "result": "52.1 * %"}, {"measurement": "density of cytisine-resistant [125I]epibatidine binding sites vs saline", "setting": "[3]", "result": "No significant differences"}, {"measurement": "A85380 resistant component of [125I]epibatidine binding", "setting": "[4]", "result": "unmodified"}, {"measurement": "Ki", "setting": "α4β2* receptors", "result": 0.17, "unit": "nM"}, {"measurement": "Ki", "setting": "human α7", "result": 7, "unit": "nM"}, {"measurement": "EC50", "setting": "[3H]dopamine release", "result": 11, "unit": "nM"}]}
